These results are taken from publication PMC5869712 (Scientific Reports, 2018).

By inhibition is commonly meant the relative decrease from the control value, in per cent.

The target in one test is JAK3 (Cys909) (Homo sapiens, UniProt P52333). Put plainly: LC-MS/MS mapping of covalent modification. In kind it is binding. The settings on record: LC-MS/MS after incubation of JAK3 with compound. The method, then: […]. Then, trypsin was added at a 1:50 trypsin-to-protein mass ratio for the first digestion overnight and a 1:100 trypsin-to-protein mass ratio for a second 4-h digestion. The digested peptides were dried with a SpeedVac (Thermo) for LC-MS/MS analysis.
Peptides were dissolved in solvent A (0.1% FA in 2% ACN) and directly loaded onto a reversed-phase pre-column (Acclaim PepMap 100, Thermo Scientific). […] The resulting peptides were analysed by Q Exactive^TM Plus hybrid Quadrupole-Orbitrap Mass Spectrometer (ThermoFisher Scientific).
The peptides were subjected to NSI source followed by tandem mass spectrometry (MS/MS) in Q Exactive^TM Plus (Thermo) coupled online to the UPLC. Intact peptides were detected in the Orbitrap at a resolution of 70,000. Peptides were selected for MS/MS using 30% NCE; ion fragments were detected in the Orbitrap at a resolution of 17,500. A data-dependent procedure that alternated between one MS scan followed by […] was applied for the top 20 precursor ions above a threshold ion count of 5000 in the MS survey scan with 5.0 s dynamic exclusion. The electrospray voltage applied was 2.0 kV. Automatic gain control (AGC) was used to prevent overfilling of the ion trap; 5 E4 ions were accumulated for generation of MS/MS spectra. For MS scans, the m/z scan range was 350 to 1800.

The target in the next test is T1, JAK3 (Homo sapiens, UniProt P52333).
T1 construct: ChemPartner (contract assay service)
T1 sequence (P52333 1-1124): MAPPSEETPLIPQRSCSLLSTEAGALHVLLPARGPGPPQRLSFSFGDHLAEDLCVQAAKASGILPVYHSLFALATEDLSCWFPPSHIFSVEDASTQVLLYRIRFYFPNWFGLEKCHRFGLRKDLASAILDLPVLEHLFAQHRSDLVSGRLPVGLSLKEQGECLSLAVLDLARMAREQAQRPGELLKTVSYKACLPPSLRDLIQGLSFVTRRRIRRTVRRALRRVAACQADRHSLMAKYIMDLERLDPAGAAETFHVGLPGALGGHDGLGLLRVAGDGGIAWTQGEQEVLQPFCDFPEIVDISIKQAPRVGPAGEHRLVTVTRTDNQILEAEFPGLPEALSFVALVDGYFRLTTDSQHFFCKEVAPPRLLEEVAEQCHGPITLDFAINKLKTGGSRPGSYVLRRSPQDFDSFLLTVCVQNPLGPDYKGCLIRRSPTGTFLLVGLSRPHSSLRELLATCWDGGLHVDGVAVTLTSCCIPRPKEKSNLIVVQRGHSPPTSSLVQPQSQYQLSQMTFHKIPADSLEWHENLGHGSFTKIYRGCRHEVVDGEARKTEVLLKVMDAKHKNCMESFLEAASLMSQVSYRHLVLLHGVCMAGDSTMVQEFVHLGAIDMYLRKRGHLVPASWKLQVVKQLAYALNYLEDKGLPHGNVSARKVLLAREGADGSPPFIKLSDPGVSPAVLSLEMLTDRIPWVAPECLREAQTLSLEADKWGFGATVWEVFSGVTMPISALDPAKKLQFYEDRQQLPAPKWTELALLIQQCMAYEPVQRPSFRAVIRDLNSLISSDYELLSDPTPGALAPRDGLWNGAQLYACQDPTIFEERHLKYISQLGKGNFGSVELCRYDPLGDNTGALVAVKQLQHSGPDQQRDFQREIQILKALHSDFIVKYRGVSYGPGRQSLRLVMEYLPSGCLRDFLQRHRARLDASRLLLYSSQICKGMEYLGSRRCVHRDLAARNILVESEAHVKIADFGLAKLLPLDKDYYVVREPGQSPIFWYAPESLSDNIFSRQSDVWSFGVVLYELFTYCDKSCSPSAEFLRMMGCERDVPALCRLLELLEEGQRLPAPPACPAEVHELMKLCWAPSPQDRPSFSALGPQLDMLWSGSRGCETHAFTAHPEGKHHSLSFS
Put plainly: Cys-containing kinase family panel (EurofinsCerep). In kind it is biochemical.

Another test concerns the target T2, BLK (Homo sapiens, UniProt P51451).
T2 construct: EurofinsCerep (contract assay service)
Put plainly: Cys-containing kinase family panel (EurofinsCerep). In kind it is biochemical.

The target in another test is T3, GRK5 (Homo sapiens, UniProt P34947).
T3 construct: purchased Eurofins KinaseProfiler (Eurofins Pharma Discovery Services UK, Dundee); JAK3 also ChemPartner
T3 sequence (P34947 whole entry): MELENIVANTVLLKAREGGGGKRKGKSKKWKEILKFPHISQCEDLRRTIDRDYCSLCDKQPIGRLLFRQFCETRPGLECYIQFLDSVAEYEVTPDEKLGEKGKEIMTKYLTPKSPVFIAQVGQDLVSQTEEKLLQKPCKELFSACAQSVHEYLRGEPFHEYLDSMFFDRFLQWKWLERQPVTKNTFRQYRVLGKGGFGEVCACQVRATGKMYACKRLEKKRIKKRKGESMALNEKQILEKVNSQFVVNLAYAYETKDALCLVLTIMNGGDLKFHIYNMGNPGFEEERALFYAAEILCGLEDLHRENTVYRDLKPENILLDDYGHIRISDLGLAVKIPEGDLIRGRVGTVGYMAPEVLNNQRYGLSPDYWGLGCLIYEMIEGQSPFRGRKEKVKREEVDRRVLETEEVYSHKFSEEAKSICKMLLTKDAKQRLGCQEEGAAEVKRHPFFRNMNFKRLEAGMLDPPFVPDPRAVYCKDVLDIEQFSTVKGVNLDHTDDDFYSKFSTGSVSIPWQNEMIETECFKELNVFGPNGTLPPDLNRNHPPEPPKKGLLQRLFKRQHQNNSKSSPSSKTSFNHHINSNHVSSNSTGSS
Put plainly: Eurofins Kinase Profiler panel. The class given is biochemical. The settings on record: read-out: % inhibition (1μM), DMSO control=100%, lower=stronger.

Another test addresses T4, ALK (Homo sapiens, UniProt Q9UM73).
T4 construct: purchased Eurofins KinaseProfiler (Eurofins Pharma Discovery Services UK, Dundee); JAK3 also ChemPartner
Put plainly: Eurofins Kinase Profiler panel. The class given is biochemical. The conditions noted are these: read-out: % inhibition (1μM), DMSO control=100%, lower=stronger.

In the next test the target is T5, ERBB4 (Homo sapiens, UniProt Q15303).
T5 construct: EurofinsCerep (contract assay service)
T5 sequence (Q15303 26-1308): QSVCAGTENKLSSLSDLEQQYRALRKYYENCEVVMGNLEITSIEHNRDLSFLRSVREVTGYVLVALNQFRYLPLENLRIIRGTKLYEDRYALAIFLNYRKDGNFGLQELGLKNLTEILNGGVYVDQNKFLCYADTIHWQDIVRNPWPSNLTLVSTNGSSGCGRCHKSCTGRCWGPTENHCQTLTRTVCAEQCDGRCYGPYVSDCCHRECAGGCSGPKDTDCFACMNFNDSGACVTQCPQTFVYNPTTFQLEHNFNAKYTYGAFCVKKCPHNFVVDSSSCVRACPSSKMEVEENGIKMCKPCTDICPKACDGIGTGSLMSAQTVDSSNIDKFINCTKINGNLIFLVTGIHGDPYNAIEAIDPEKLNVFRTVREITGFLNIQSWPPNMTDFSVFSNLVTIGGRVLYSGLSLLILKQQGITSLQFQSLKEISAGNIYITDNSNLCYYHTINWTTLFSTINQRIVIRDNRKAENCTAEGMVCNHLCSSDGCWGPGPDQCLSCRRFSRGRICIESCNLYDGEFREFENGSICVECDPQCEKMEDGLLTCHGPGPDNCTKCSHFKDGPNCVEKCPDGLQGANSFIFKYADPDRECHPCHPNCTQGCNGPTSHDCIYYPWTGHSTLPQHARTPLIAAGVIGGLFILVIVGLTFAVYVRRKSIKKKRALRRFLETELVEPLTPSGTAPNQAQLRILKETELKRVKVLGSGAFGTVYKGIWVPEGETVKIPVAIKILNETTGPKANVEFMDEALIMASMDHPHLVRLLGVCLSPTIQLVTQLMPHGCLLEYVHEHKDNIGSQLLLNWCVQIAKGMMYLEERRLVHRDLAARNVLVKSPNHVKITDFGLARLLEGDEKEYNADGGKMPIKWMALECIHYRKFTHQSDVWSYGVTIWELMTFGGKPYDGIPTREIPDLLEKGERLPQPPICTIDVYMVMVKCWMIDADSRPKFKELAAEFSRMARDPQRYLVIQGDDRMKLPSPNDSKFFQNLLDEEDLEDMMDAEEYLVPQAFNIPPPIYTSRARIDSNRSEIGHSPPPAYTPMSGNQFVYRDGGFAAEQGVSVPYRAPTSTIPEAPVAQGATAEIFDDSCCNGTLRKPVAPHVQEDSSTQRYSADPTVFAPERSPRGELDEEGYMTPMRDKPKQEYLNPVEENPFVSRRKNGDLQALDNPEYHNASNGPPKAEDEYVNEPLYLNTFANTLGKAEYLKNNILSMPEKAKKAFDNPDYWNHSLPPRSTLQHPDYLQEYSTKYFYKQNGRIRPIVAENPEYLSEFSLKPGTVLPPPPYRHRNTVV
Put plainly: Cys-containing kinase family panel (EurofinsCerep). In kind it is biochemical.

T4 sequence (Q9UM73 19-1620): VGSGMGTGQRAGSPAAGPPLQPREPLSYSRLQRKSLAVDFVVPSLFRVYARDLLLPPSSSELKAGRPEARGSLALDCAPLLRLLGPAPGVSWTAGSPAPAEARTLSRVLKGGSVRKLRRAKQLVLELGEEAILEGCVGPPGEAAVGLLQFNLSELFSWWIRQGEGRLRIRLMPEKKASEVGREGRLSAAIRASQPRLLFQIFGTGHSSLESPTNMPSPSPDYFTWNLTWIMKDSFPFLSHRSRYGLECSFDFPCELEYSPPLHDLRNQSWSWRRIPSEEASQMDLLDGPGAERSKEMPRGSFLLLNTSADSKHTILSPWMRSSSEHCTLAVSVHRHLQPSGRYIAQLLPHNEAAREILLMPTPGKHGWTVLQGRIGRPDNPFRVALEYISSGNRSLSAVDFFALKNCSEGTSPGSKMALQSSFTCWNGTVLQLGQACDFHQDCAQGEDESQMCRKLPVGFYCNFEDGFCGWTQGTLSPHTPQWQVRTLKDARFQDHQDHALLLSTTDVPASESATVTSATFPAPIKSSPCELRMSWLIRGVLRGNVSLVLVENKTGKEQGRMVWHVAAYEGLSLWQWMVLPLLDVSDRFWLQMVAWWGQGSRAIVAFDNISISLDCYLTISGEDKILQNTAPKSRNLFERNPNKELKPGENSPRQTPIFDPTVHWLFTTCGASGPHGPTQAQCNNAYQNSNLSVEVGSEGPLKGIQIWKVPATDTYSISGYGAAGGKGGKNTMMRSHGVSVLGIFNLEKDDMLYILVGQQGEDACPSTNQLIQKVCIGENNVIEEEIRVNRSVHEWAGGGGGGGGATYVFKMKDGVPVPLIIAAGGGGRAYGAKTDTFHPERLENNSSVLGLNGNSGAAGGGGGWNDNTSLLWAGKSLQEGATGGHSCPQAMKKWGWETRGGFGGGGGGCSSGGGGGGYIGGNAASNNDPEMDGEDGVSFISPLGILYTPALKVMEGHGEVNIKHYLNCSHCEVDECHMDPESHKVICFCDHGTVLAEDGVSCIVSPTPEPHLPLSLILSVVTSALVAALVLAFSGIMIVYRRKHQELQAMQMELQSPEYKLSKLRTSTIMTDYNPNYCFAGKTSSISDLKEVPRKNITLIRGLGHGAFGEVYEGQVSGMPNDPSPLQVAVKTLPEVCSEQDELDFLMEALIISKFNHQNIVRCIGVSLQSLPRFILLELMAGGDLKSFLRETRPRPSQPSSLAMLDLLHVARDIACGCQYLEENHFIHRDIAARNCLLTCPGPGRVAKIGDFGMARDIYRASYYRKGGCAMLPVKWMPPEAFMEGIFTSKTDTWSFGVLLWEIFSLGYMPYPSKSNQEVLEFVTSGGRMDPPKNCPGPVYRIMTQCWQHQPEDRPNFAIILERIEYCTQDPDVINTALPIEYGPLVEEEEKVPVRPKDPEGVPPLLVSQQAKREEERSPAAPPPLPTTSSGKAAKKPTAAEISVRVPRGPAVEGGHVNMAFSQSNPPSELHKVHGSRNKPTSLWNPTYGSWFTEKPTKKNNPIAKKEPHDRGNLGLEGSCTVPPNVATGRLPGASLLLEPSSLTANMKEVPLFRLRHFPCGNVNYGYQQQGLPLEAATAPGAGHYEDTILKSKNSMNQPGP
T2 sequence (P51451 whole entry): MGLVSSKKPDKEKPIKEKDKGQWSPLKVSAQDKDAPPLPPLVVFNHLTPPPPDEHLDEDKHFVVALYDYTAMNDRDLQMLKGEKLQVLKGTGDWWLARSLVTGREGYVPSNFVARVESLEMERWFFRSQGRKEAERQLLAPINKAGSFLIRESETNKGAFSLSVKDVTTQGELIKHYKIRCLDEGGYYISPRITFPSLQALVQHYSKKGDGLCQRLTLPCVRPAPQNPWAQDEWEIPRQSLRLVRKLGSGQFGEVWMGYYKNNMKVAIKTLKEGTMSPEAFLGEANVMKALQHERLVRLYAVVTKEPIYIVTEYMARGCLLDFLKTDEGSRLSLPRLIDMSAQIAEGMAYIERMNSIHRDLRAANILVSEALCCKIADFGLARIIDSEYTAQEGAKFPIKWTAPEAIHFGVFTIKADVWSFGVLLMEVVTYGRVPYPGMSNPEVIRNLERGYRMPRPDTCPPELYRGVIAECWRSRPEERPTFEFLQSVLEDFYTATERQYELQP

In the case of `C=CC(=O)N[C@@H]1CCCN(c2ncnc3[nH]ccc23)C1` [RB1], the “covalent modification of JAK3 (Cys909-containing peptide)” value on JAK3 (Cys909) is reported as “covalently modify JAK3 in an apparently irreversible manner”. Further, the figures for the inhibition at 1 µM at JAK3, on BLK and against ERBB4 were 99.1%, 8.35% and -3.5%, respectively. For the same compound, the activity at 1 µM on GRK5 was found to be 94%; at ALK, 100%.
